Among the data in ChEMBL document CHEMBL3991601, “The target landscape of clinical kinase drugs” (Science, 2017) are Kd values, retold here.

Test [1] concerns the target Actin-related protein 2 (Homo sapiens, UniProt P61160).
Test [2] concerns the target Casein kinase II subunit alpha' (Homo sapiens, UniProt P19784).
In test [3] the target is LIM domain kinase 2 (Homo sapiens, UniProt P53671).
Test [4] deals with Tyrosine-protein kinase Lyn (Homo sapiens, UniProt P07948).
The target in test [5] is Dual specificity mitogen-activated protein kinase kinase 1 (Homo sapiens, UniProt Q02750).
Dual specificity mitogen-activated protein kinase kinase 1, sequence (Q02750 whole entry): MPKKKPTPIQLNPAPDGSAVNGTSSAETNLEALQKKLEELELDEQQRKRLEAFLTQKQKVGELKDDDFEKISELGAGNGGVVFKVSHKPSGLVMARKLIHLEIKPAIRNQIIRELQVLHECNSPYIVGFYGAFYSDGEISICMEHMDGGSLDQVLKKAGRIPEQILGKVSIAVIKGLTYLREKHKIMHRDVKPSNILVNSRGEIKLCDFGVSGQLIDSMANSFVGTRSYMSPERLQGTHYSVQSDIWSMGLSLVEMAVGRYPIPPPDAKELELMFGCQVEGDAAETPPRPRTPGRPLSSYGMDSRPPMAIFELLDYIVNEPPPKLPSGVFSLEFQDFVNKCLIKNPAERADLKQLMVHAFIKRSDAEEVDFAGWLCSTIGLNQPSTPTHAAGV
Test [6] addresses T1, Dual specificity mitogen-activated protein kinase kinase 6 (Homo sapiens, UniProt P52564).
T1 sequence (P52564 whole entry): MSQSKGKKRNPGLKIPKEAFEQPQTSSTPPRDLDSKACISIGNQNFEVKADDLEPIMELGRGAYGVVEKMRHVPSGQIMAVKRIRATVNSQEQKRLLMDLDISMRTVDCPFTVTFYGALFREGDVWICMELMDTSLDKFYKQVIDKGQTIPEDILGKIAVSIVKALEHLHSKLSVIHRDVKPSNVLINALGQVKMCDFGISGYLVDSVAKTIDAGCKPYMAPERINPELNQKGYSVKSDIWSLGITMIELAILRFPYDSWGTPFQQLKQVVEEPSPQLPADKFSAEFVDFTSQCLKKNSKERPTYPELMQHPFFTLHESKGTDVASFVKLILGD

For test [7], the target named is T2, Mitogen-activated protein kinase kinase kinase 3 (Homo sapiens, UniProt Q99759).
T2 sequence (Q99759 whole entry): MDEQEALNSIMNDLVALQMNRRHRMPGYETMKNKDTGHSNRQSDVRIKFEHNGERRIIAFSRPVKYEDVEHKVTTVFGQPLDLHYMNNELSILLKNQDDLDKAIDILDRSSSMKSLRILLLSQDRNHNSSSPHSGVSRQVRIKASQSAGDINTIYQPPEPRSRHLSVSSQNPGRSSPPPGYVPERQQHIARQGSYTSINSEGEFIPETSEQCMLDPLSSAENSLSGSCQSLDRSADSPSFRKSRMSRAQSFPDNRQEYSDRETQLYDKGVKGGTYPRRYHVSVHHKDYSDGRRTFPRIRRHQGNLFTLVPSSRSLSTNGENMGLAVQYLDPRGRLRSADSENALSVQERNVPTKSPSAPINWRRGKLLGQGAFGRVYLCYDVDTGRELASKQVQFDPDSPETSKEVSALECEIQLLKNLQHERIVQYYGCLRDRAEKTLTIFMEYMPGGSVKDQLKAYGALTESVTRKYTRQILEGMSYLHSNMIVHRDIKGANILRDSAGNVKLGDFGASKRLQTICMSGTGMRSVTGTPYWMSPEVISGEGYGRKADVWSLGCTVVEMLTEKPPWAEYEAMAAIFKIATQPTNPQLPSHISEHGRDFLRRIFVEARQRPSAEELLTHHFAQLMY

For test [8], the target named is MAP/microtubule affinity-regulating kinase 3 (Homo sapiens, UniProt P27448).
MAP/microtubule affinity-regulating kinase 3, sequence (P27448 whole entry): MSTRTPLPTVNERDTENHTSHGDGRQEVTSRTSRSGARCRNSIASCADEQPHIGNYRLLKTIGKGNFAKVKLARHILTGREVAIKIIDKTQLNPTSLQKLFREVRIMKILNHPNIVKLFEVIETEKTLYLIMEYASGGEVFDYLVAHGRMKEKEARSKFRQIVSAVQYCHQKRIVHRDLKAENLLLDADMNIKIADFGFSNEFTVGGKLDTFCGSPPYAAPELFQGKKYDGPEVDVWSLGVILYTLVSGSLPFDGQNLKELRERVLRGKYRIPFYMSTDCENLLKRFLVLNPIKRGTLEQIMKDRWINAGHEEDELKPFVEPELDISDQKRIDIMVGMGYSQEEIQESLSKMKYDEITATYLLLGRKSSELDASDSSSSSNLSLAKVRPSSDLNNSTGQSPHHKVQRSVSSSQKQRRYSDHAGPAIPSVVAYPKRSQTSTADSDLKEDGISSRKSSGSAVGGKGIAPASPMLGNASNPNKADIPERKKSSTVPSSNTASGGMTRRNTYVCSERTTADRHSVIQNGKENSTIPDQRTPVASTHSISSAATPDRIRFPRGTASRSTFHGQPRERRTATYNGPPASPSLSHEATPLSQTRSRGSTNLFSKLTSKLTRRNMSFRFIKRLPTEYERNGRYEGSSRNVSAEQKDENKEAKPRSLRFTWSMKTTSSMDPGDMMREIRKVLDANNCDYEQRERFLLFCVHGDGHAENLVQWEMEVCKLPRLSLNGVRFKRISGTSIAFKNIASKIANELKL
Test [9] addresses Maternal embryonic leucine zipper kinase (Homo sapiens, UniProt Q14680).
The target in test [10] is T3, Serine/threonine-protein kinase D3 (Homo sapiens, UniProt O94806).
T3 sequence (O94806 whole entry): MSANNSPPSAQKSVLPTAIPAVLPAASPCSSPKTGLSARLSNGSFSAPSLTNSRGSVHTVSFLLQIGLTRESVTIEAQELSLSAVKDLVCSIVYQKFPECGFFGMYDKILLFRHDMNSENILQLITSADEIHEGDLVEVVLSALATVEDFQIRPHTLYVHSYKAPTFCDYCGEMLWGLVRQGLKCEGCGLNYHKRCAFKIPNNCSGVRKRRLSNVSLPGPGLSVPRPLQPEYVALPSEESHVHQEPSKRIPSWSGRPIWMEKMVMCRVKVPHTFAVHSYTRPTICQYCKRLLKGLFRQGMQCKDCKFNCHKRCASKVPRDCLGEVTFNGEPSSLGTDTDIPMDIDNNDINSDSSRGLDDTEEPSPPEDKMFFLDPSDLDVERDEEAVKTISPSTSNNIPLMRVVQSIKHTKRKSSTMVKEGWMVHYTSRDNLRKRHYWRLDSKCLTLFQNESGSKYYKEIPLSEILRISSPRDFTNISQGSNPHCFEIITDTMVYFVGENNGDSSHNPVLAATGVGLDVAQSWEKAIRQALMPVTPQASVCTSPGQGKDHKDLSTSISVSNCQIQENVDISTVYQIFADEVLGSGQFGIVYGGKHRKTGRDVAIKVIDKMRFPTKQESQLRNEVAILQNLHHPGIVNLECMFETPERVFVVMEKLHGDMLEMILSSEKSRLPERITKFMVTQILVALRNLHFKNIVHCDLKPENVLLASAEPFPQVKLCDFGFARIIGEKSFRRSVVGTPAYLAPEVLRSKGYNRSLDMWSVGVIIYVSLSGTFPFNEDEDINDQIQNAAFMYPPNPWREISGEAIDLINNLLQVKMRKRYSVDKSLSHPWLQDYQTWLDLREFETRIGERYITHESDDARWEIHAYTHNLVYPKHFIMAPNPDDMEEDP

Test [11] addresses Ribosomal protein S6 kinase alpha-5 (Homo sapiens, UniProt O75582).
The target in test [12] is Ribosomal protein S6 kinase beta-1 (Homo sapiens, UniProt P23443).
Ribosomal protein S6 kinase beta-1, sequence (P23443 whole entry): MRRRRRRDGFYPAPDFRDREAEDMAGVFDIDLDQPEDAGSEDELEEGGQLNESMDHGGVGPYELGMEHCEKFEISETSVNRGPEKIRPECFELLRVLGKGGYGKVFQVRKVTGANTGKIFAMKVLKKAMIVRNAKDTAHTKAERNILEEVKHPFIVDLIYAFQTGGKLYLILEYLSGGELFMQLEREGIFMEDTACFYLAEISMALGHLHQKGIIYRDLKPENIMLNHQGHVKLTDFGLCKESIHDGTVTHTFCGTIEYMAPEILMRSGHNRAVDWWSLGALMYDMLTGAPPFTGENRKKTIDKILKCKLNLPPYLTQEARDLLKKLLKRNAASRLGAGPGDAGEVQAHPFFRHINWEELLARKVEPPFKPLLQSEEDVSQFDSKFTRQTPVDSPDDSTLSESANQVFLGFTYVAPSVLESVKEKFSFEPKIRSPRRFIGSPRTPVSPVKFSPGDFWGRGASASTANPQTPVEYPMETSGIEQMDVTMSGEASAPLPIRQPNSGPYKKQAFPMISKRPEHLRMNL
Test [13] addresses Tyrosine-protein kinase SYK (Homo sapiens, UniProt P43405).

Structures are written as SMILES. Active and inactive are the calls of the source. For most assays here, no stated cut-off is given here; in the data, actives have a measured Kd and inactives only a lower limit.

Maternal embryonic leucine zipper kinase, sequence (Q14680 whole entry): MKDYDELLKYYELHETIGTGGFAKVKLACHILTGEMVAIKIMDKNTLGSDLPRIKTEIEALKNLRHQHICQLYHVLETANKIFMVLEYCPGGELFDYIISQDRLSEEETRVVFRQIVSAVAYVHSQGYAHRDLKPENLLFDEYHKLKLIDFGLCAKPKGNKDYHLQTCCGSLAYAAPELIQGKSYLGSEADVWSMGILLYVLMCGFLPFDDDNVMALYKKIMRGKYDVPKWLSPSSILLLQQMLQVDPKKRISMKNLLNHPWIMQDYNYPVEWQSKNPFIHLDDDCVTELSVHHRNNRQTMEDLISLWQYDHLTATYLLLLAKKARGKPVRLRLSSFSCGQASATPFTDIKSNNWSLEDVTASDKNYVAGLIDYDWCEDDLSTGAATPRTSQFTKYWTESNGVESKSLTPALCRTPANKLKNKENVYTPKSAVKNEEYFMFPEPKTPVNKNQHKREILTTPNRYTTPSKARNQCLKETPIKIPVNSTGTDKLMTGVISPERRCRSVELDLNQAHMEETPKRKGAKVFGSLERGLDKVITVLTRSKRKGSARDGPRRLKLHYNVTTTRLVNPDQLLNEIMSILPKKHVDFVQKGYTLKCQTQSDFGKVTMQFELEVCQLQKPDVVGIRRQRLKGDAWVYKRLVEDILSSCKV
Casein kinase II subunit alpha', sequence (P19784 whole entry, the tested form may be a part): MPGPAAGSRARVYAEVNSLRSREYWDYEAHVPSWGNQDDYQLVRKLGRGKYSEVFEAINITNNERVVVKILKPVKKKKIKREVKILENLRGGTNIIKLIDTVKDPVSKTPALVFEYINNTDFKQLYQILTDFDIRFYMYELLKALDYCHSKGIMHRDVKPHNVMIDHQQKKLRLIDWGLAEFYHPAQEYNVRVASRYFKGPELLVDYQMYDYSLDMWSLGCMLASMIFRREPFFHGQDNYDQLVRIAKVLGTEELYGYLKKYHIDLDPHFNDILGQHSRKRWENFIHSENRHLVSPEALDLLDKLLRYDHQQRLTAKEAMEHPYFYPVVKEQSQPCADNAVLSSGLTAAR
Tyrosine-protein kinase Lyn, sequence (P07948 whole entry): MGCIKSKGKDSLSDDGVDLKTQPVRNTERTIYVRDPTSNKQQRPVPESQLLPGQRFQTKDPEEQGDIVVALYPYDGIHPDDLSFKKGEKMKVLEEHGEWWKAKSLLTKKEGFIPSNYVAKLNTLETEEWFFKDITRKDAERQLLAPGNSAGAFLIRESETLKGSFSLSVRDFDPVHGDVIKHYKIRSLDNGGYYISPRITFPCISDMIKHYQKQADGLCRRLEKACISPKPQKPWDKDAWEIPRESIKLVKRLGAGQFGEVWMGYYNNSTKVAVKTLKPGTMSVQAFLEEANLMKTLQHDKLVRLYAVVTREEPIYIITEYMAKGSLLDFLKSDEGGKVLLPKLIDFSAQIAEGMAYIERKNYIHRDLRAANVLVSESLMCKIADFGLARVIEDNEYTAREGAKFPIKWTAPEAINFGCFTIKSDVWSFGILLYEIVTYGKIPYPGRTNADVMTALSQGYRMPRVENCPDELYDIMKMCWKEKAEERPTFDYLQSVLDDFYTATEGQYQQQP
LIM domain kinase 2, sequence (P53671 whole entry, the tested form may be a part): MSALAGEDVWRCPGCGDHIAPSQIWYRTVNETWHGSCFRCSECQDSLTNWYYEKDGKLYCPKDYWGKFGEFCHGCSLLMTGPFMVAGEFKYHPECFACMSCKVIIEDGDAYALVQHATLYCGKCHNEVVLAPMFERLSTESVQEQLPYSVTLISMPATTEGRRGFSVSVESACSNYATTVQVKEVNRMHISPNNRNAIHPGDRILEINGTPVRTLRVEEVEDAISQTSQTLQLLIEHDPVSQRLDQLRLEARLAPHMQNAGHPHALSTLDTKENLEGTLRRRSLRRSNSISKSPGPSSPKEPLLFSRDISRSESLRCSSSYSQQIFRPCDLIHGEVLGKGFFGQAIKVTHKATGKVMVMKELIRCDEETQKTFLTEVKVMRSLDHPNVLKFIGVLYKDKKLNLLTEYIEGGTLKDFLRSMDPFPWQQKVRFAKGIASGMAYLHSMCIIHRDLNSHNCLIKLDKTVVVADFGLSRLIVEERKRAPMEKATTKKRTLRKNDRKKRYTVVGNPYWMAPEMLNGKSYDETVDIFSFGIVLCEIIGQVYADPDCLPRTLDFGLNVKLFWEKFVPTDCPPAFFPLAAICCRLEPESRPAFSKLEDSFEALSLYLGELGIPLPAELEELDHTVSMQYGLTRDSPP
Ribosomal protein S6 kinase alpha-5, sequence (O75582 whole entry): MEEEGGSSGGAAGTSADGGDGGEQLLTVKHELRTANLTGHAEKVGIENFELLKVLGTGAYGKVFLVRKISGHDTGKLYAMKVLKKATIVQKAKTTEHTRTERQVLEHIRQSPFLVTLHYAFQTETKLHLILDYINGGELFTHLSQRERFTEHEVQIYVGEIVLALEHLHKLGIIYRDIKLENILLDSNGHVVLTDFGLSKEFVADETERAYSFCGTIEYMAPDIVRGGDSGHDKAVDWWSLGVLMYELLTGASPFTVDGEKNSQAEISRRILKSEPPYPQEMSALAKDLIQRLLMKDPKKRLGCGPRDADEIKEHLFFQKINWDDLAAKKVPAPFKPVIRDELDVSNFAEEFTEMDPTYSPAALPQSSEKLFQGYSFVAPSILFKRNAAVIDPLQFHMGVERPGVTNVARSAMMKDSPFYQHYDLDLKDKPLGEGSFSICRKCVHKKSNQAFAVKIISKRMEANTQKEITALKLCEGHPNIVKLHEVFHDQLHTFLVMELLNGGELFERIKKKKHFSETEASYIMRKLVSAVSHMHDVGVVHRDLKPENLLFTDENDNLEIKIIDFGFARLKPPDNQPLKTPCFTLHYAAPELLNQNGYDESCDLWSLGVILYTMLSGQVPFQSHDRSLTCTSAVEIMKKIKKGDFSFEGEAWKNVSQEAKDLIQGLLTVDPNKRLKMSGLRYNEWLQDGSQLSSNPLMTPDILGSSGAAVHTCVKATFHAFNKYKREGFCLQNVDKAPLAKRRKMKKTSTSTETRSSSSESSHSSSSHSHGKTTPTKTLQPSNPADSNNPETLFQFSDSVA

What is called Kd is a measure of binding affinity in units of concentration. As for `C[C@@H](Nc1cc(F)cc(F)c1)c1cc(C(=O)N(C)C)cc2c(=O)cc(N3CCOCC3)oc12` [AZD-8186], the Kd in test [1], in test [2], in [3], in test [4], in test [5] and in test [6] was > 30 µM (inactive) throughout. For the same compound, the Kd in test [7], in [8], in test [9], in test [10], in test [11] and in test [12] was > 30 µM (inactive) each time. For the same compound, in test [13], the Kd is > 30 µM (inactive).
For the compound `CNC(=O)c1cc(Oc2ccc(NC(=O)Nc3ccc(Cl)c(C(F)(F)F)c3)c(F)c2)ccn1` [REGORAFENIB], the Kd in [1], in test [2], in [3], in test [4], in [5] and in test [6] was > 30 µM (inactive) throughout. Moreover, the Kd in test [7], in test [8], in [9], in [10], in [11] and in [12] was > 30 µM (inactive) each time. Also, the Kd in test [13] is > 30 µM (inactive).
In the case of `COc1cc2nccc(Oc3ccc(NC(=O)Nc4cc(C)on4)c(Cl)c3)c2cc1OC` [TIVOZANIB], the Kd in [1] is > 30 µM (inactive); in test [2], > 30 µM (inactive); in test [3], > 30 µM (inactive); in test [4], 2.02 µM (active); in test [5] it was > 30 µM (inactive); in test [6], > 30 µM (inactive). The Kd in test [7], in test [8], in [9], in test [10], in test [11] and in test [12] was > 30 µM (inactive) throughout. Besides, the Kd in test [13] was > 30 µM (inactive).
Consider `CCCS(=O)(=O)Nc1ccc(F)c(C(=O)c2c[nH]c3ncc(-c4ccc(Cl)cc4)cc23)c1F` [VEMURAFENIB], for which the Kd in test [1], in test [2], in test [3], in [4], in test [5] and in [6] was > 30 µM (inactive) in each case. The Kd in test [7], in test [8], in test [9], in [10], in test [11] and in test [12] was > 30 µM (inactive) each time. Also, in [13], the Kd is > 30 µM (inactive).
As for `N[C@@H]1CCCN(c2c(/C=C3\SC(=O)NC3=O)cccc2-c2ccccc2)C1`, the Kd is > 30 µM (inactive) in [1]; 3.02 µM (active) in test [2]; > 30 µM (inactive) in test [3]; > 30 µM (inactive) in [4]; > 30 µM (inactive) in test [5]; > 30 µM (inactive) in test [6]. Further, the Kd in [7], in test [8], in [9], in test [10], in test [11] and in [12] was > 30 µM (inactive) each time. For the same compound, the Kd in [13] was > 30 µM (inactive).
Turning to `O=C(O)[C@]1(Cc2cccc(Nc3nccs3)n2)CC[C@@H](Oc2cccc(Cl)c2F)CC1` [MK-5108], the Kd in [1], in [2], in test [3], in test [4], in test [5] and in test [6] was > 30 µM (inactive) in each case. Besides, the Kd in test [7], in [8], in test [9], in test [10], in test [11] and in [12] was > 30 µM (inactive) throughout. Further, in [13], the Kd is > 30 µM (inactive).
Take `COc1cc(OC)c(/C=C/S(=O)(=O)Cc2ccc(OC)c(NCC(=O)O)c2)c(OC)c1` [RIGOSERTIB]: the Kd in test [1], in test [2], in test [3], in [4], in [5] and in test [6] was > 30 µM (inactive) in each case. Moreover, the Kd in test [7], in test [8], in test [9], in test [10], in test [11] and in [12] was > 30 µM (inactive) each time. The Kd in test [13] is > 30 µM (inactive).
As for `CC[C@@H]1C(=O)N(C)c2cnc(Nc3ccc(C(=O)N[C@H]4CC[C@H](N5CCN(CC6CC6)CC5)CC4)cc3OC)nc2N1C(C)C` [VOLASERTIB], the Kd in test [1], in [2], in test [3], in [4], in test [5] and in test [6] was > 30 µM (inactive) in each case. The Kd in test [7], in test [8], in test [9], in test [10], in test [11] and in test [12] was > 30 µM (inactive) throughout. For the same compound, the Kd in test [13] was > 30 µM (inactive).
As for `Cc1cc(-c2cc(O)ccc2Cl)cc2nnc(Nc3ccc(OCCN4CCCC4)cc3)nc12`, the Kd in [1], in test [2], in test [3], in test [4], in test [5] and in test [6] was > 30 µM (inactive) throughout. For the same compound, the Kd in test [7] is > 30 µM (inactive); in test [8] it was > 30 µM (inactive); in test [9], > 30 µM (inactive); in test [10], 0.003 µM; in test [11], > 30 µM (inactive); in test [12], > 30 µM (inactive). Also, the Kd in test [13] was > 30 µM (inactive).
